According to PubChem BioAssay AID1259407 (Chemical Carcinogenesis Research Information System (CCRIS), 2018):
Calls of active or inactive are those of the source. How the calls were made is not given here.

System: CCRIS mutagenicity, Ames/micronucleus/aberration tests
Test: CCRIS mutagenicity studies

Structure (SMILES): COc1cc(CNC(=O)CCCC/C=C/C(C)C)ccc1O
- mutagenic call (End Point: IN VITRO CHROMOSOMAL ABERRATIONS, Test System: HUMAN LYMPHOCYTES, Metabolic Activation: NONE): inactive; negative
- mutagenic call (End Point: IN VITRO CHROMOSOMAL ABERRATIONS, Test System: HUMAN LYMPHOCYTES, Metabolic Activation: RAT LIVER S-9, AROCLOR 1254): inactive; negative
- mutagenic call (End Point: IN VITRO CHROMOSOMAL ABERRATIONS, Test System: HUMAN LYMPHOCYTES, Metabolic Activation: S-9): inactive; negative
- mutagenic call (End Point: IN VITRO CHROMOSOMAL ABERRATIONS, Test System: HUMAN PERIPHERAL BLOOD LYMPHOCYTES, Metabolic Activation: NONE): inactive; negative
- mutagenic call (End Point: IN VITRO CHROMOSOMAL ABERRATIONS, Test System: HUMAN PERIPHERAL BLOOD LYMPHOCYTES, Metabolic Activation: RAT, LIVER, S-9, AROCLOR 1254): inactive; negative
- mutagenic call (End Point: IN VIVO MICRONUCLEUS, Test System: BONE MARROW ERYTHROCYTES, Species: MOUSE, Strain/Sex: CD-1/FEMALE, Route: GAVAGE): inactive; negative
- mutagenic call (End Point: IN VIVO MICRONUCLEUS, Test System: BONE MARROW ERYTHROCYTES, Species: MOUSE, Strain/Sex: CD-1/MALE, Route: GAVAGE): inactive; negative
- mutagenic call (End Point: IN VIVO MICRONUCLEUS, Test System: BONE MARROW POLYCHROMATIC ERYTHROCYTES, Species: MOUSE, Strain/Sex: CD-1/MALE, FEMALE, Route: GAVAGE): inactive; negative
- mutagenic call (Test System: AMES SALMONELLA TYPHIMURIUM, Strain/Indicator: TA97, Metabolic Activation: NONE, Method: PREINCUBATION (20 MIN)): inactive; negative
- mutagenic call (Test System: AMES SALMONELLA TYPHIMURIUM, Strain/Indicator: TA97, Metabolic Activation: S-9, Method: PREINCUBATION (20 MIN)): inactive; negative
- mutagenic call (Test System: AMES SALMONELLA TYPHIMURIUM, Strain/Indicator: TA98, Metabolic Activation: HAMSTER, LIVER, S-9, AROCLOR 1254, Method: STANDARD PLATE): inactive; negative
- mutagenic call (Test System: AMES SALMONELLA TYPHIMURIUM, Strain/Indicator: TA98, Metabolic Activation: NONE, Method: DIRECT PLATE): inactive; negative
- mutagenic call (Test System: AMES SALMONELLA TYPHIMURIUM, Strain/Indicator: TA98, Metabolic Activation: NONE, Method: PREINCUBATION): inactive; negative
- mutagenic call (Test System: AMES SALMONELLA TYPHIMURIUM, Strain/Indicator: TA98, Metabolic Activation: NONE, Method: PREINCUBATION (20 MIN)): inactive; negative
- mutagenic call (Test System: AMES SALMONELLA TYPHIMURIUM, Strain/Indicator: TA98, Metabolic Activation: RAT LIVER S-9, AROCLOR 1254, Method: PREINCUBATION): inactive; negative
- mutagenic call (Test System: AMES SALMONELLA TYPHIMURIUM, Strain/Indicator: TA98, Metabolic Activation: RAT LIVER S-9, AROCLOR 1254, Method: STANDARD PLATE): inactive; negative
- mutagenic call (Test System: AMES SALMONELLA TYPHIMURIUM, Strain/Indicator: TA98, Metabolic Activation: RAT, LIVER, S-9, AROCLOR 1254, Method: DIRECT PLATE): inactive; negative
- mutagenic call (Test System: AMES SALMONELLA TYPHIMURIUM, Strain/Indicator: TA98, Metabolic Activation: RAT, LIVER, S-9, AROCLOR 1254, Method: PREINCUBATION): inactive; negative
- mutagenic call (Test System: AMES SALMONELLA TYPHIMURIUM, Strain/Indicator: TA98, Metabolic Activation: RAT, LIVER, S-9, AROCLOR, Method: STANDARD PLATE): active; positive
- mutagenic call (Test System: AMES SALMONELLA TYPHIMURIUM, Strain/Indicator: TA98, Metabolic Activation: S-9, Method: PREINCUBATION (20 MIN)): inactive; negative
- mutagenic call (Test System: AMES SALMONELLA TYPHIMURIUM, Strain/Indicator: TA100, Metabolic Activation: HAMSTER, LIVER, S-9, AROCLOR 1254, Method: STANDARD PLATE): inactive; negative
- mutagenic call (Test System: AMES SALMONELLA TYPHIMURIUM, Strain/Indicator: TA100, Metabolic Activation: NONE, Method: DIRECT PLATE): inactive; negative
- mutagenic call (Test System: AMES SALMONELLA TYPHIMURIUM, Strain/Indicator: TA100, Metabolic Activation: NONE, Method: PREINCUBATION): inactive; negative
- mutagenic call (Test System: AMES SALMONELLA TYPHIMURIUM, Strain/Indicator: TA100, Metabolic Activation: NONE, Method: STANDARD PLATE): inactive; negative
- mutagenic call (Test System: AMES SALMONELLA TYPHIMURIUM, Strain/Indicator: TA100, Metabolic Activation: RAT LIVER S-9, AROCLOR 1254, Method: PREINCUBATION): inactive; negative
- mutagenic call (Test System: AMES SALMONELLA TYPHIMURIUM, Strain/Indicator: TA100, Metabolic Activation: RAT LIVER S-9, AROCLOR 1254, Method: STANDARD PLATE): inactive; negative
- mutagenic call (Test System: AMES SALMONELLA TYPHIMURIUM, Strain/Indicator: TA100, Metabolic Activation: RAT, LIVER, S-9, AROCLOR 1254, Method: DIRECT PLATE): inactive; negative
- mutagenic call (Test System: AMES SALMONELLA TYPHIMURIUM, Strain/Indicator: TA100, Metabolic Activation: RAT, LIVER, S-9, AROCLOR 1254, Method: PREINCUBATION): inactive; negative
- mutagenic call (Test System: AMES SALMONELLA TYPHIMURIUM, Strain/Indicator: TA100, Metabolic Activation: S-9 (0.25 ML), Method: PREINCUBATION (20 MIN)): inactive; negative
- mutagenic call (Test System: AMES SALMONELLA TYPHIMURIUM, Strain/Indicator: TA100, Metabolic Activation: S-9 (0.5 ML), Method: PREINCUBATION (60 MIN)): inactive; negative
- mutagenic call (Test System: AMES SALMONELLA TYPHIMURIUM, Strain/Indicator: TA1535, Metabolic Activation: HAMSTER, LIVER, S-9, AROCLOR 1254, Method: STANDARD PLATE): inactive; negative
